A short description of series [1]: Pharmacokinetic study in rats after oral administration of Epimedium extract (HPLC-MS/MS of plasma). The following applies: rat plasma, single oral dose of Epimedium extract 10 g/kg; for AUC(0-inf) / half-life / AUC / MRT / MRT inf: male, Sprague-Dawley; for AUC(0-inf) / half-life / AUC / MRT / MRT inf / Cmax1 / Tmax1: n = 6; for AUC: read-out: AUC(0-tn); for MRT: read-out: MRT(0-tn); for MRT inf: read-out: MRT(0-∞); for Cmax2 / Tmax2: n = 6, second peak. The class given is in vivo, Male Sprague-Dawley rats. As to the method: An Agilent 1200 Series HPLC system, which consisted of a binary pump (G1312A), an auto-sampler (G1367B), an online degasser unit (G1322A), along with temperature-controlled column compartment (G1316A), was used for the analysis. The twelve compounds and IS were separated on a CORTECS®C18 column (4.6 mm × 150 mm, 2.7 μm) maintained at 30 °C with the mobile phase consisted of acetonitrile (A) and 0.1% (v/v) formic acid (B). The flow rate was 0.3 mL/min. The gradient elution was as follows: 0–4 min, 20–50% A; 4–5 min, 50–60% A; 5–15 min, 60–70% A. The injection volume was 5 μL.
The tandem mass spectrometry was performed on a triple-quadrupole mass spectrometer equipped with an electrospray ionization (ESI) source (Agilent G6430A system). Nitrogen gas served as the nebulizer, drying, and collision gas. Analytes were monitored by SRM in negative mode with the electrospray ionization parameters optimized as follows: ion spray voltage of −4000 V, capillary temperature of 350 °C, auxiliary nitrogen pressure of 20 psi, drying gas flow of 9 L/min. The mass spectrometric parameters of precursor ion, product ion, collision energy (CE) and fragmentor (Frag) for analytes are listed in Table 6. Both the collision energy and the fragmentor were optimized for each compound by infusion of the standard solutions of methanol to mass spectrometry directly. The peak in sample was recognized as the target compound if the retention time, precursor ion, and product ion are same as the stand. For each analyte, the most abundant product ion was chosen for quantification. All analytes were quantified using the 6-point calibration curve. The peak areas were used for quantification following an internal algorithm. For each batch of samples processed and analyzed, the determined concentration of each compound in the QC samples, as quantified by the standard curves, was required to fall within ±15% of the known concentration for the data to be included in the final analysis.
Male Sprague-Dawley rats (220 ± 10) g were obtained from the Beijing HUAFUKANG Bioscience Co., Inc. (Beijing, China). Six male rats were acclimatized to the facilities for a week and fasted for 12 h, but allowed free access to water, before dosing. The Epimedium extract was suspended in 0.5% carboxymethyl cellulose sodium (CMC-Na) aqueous solution and given to each rat by oral administration at a single dose of 10 g/kg. Blood samples (250 μL) were collected from the fossa orbitalis of rats at 0 (before dosing), 0.03, 0.08, 0.17, 0.25, 0.5, 1, 2, 4, 6, 8, 10, 12 and 24 h after dosing. Then, the blood samples were centrifuged at 6000 g for 10 min to obtain the plasma, and the plasma was removed to another EP tube and frozen at −70 °C until analysis. The rat plasma concentration–time data of 12 analytes were computed by the software “Drug and Statistics 1.0” (DAS 1.0)

On the set-up of series [2]: method as in PMID 20705408. Conditions: previous reports ref 19; cited from earlier work.

As for `CC(C)=CCc1c(O)cc(O)c2c(=O)c(OC3OC(C)C(O)C(O)C3O)c(-c3ccc(O)cc3)oc12` (stereo not shown) [baohuoside II], in series [1], the area under the curve AUC(0-inf) (in general, the area under the concentration-time curve extrapolated to infinity) came to 355 ± 144 ng·h/mL; the half-life (in general, the time in which the quantity being followed falls by half) was 6.93 ± 2.94 h; the AUC (usually concentration integrated over time) came out at 246 ± 133 ng·h/mL; the MRT (in general, a mean duration of stay, worked out from the concentration-time curve) came out at 11.5 ± 1.99 h. Moreover, in series [1], the MRT inf was 16.5 ± 3.06 h, the Cmax1 is 6.87 ± 4.58 ng/mL, the Tmax1 is on record as 0.18 ± 0.03 h and the Cmax2 is recorded as 29.17 ± 7.70 ng/mL. In series [1], the Tmax2 worked out at 10.67 ± 1.03 h.

Consider `COc1ccc(-c2oc3c(CC=C(C)C)c(O)cc(O)c3c(=O)c2O[C@@H]2O[C@@H](C)[C@H](O)[C@@H](O)[C@H]2O)cc1` [baohuoside I], for which, in series [1], the AUC(0-inf) was 1680 ± 599 ng·h/mL, the half-life is 13.2 ± 4.8 h, the area under the curve (AUC) stood at 1450 ± 616 ng·h/mL and the MRT came out at 10.8 ± 1.21 h. In addition, in series [1], the MRT inf is 15.7 ± 4.1 h, the Cmax1 is on record as 65.20 ± 33.56 ng/mL, the Tmax1 came to 0.38 ± 0.14 h and the Cmax2 amounted to 170.73 ± 66.97 ng/mL. In series [1], the Tmax2 is 10.00 ± 1.79 h. Further, the “bimodal phenomenon of plasma concentration–time curve” value in series [2] was “bimodal phenomenon”.

Turning to `O=C(/C=C/c1ccc(O)c(O)c1)O[C@@H]1C[C@](O)(C(=O)O)C[C@@H](O)[C@H]1O` [chlorogenic acid], in series [1], the AUC(0-inf) was determined as 886 ± 377 ng·h/mL, the half-life was 0.45 ± 0.3 h, the AUC was 880 ± 365 ng·h/mL and the MRT amounted to 3.85 ± 1.28 h. Also, in series [1], the MRT inf is 3.91 ± 1.32 h, the Cmax1 came out at 540.28 ± 225.18 ng/mL and the Tmax1 turned out to be 0.19 ± 0.05 h.

Regarding `O=C(/C=C/c1ccc(O)c(O)c1)O[C@H]1[C@H](O)C[C@](O)(C(=O)O)C[C@H]1O` [cryptochlorogenic acid], in series [1], the total exposure AUC(0-inf) was determined as 404 ± 169 ng·h/mL, the half-life is 0.53 ± 0.24 h, the AUC was found to be 398 ± 171 ng·h/mL and the MRT stood at 3.75 ± 1.91 h. In series [1], the MRT inf was determined as 3.82 ± 2.48 h, the Cmax1 was 269.77 ± 114.07 ng/mL and the Tmax1 was 0.19 ± 0.05 h.

Regarding `COc1ccc(-c2oc3c(CC=C(C)C)c(OC4OC(CO)C(O)C(O)C4O)cc(O)c3c(=O)c2OC2OC(C)C(O)C(O)C2OC2OC(CO)C(O)C(O)C2O)cc1` (stereo not shown) [epimedin A], in series [1], the total exposure AUC(0-inf) turned out to be 600 ± 219 ng·h/mL, the half-life was 12.5 ± 6.85 h, the AUC was found to be 550 ± 199 ng·h/mL and the MRT came to 10.8 ± 2.33 h. Moreover, in series [1], the MRT inf turned out to be 14.1 ± 3.98 h, the Cmax1 is reported as 82.79 ± 7.61 ng/mL, the Tmax1 came out at 0.22 ± 0.04 h and the Cmax2 came out at 59.34 ± 26.24 ng/mL. Further, the Tmax2 in series [1] is listed as 9.33 ± 0.94 h. Moreover, the “bimodal phenomenon of plasma concentration–time curve” value in series [2] is on record as “bimodal phenomenon”.

Take `COc1ccc(-c2oc3c(CC=C(C)C)c(OC4OC(CO)C(O)C(O)C4O)cc(O)c3c(=O)c2OC2OC(C)C(O)C(O)C2OC2OCC(O)C(O)C2O)cc1` (stereo not shown) [epimedin B]: in series [1], the AUC(0-inf) was determined as 1070 ± 212 ng·h/mL, the half-life is 3.64 ± 3.68 h, the area under the curve (AUC) worked out at 946 ± 250 ng·h/mL and the MRT turned out to be 6.98 ± 1.14 h. In addition, in series [1], the MRT inf is 8.37 ± 2.39 h, the Cmax1 is listed as 316.73 ± 59.06 ng/mL, the Tmax1 is recorded as 0.19 ± 0.07 h and the Cmax2 stood at 129.90 ± 77.04 ng/mL. Besides, the Tmax2 in series [1] is listed as 7.67 ± 0.75 h. Besides, in series [2], the “bimodal phenomenon of plasma concentration–time curve” value is “bimodal phenomenon”.

As for `COc1ccc(-c2oc3c(CC=C(C)C)c(OC4OC(CO)C(O)C(O)C4O)cc(O)c3c(=O)c2OC2OC(C)C(O)C(O)C2OC2OC(C)C(O)C(O)C2O)cc1` (stereo not shown) [epimedin C], in series [1], the area under the curve AUC(0-inf) came out at 919 ± 215 ng·h/mL, the half-life is 17.9 ± 8.23 h, the AUC was 850 ± 269 ng·h/mL and the mean residence time (MRT) worked out at 9.33 ± 2.34 h. In series [1], the MRT inf was determined as 12.5 ± 2.59 h, the Cmax1 is 135.22 ± 31.26 ng/mL, the Tmax1 was found to be 0.22 ± 0.04 h and the Cmax2 worked out at 103.20 ± 33.10 ng/mL. In series [1], the Tmax2 was determined as 7.67 ± 0.75 h.

Consider `COc1ccc(-c2oc3c(CC=C(C)C)c(O[C@@H]4O[C@H](CO)[C@@H](O)[C@H](O)[C@H]4O)cc(O)c3c(=O)c2O[C@@H]2O[C@@H](C)[C@H](O)[C@@H](O)[C@H]2O)cc1` [icariin], for which, in series [1], the AUC(0-inf) was 325 ± 209 ng·h/mL, the half-life is 0.41 ± 0.19 h, the AUC was 323 ± 205 ng·h/mL and the MRT turned out to be 2.71 ± 0.79 h. Further, in series [1], the MRT inf turned out to be 2.75 ± 0.97 h, the Cmax1 stood at 350.28 ± 195.96 ng/mL and the Tmax1 is reported as 0.16 ± 0.05 h.

For the compound `COc1ccc2c(c1O)-c1c(O)c(OC)cc3c1[C@H](C2)[N+](C)(C)CC3` [magnoflorine], in series [1], the total exposure AUC(0-inf) is 4000 ± 970 ng·h/mL, the half-life is 17.8 ± 8.25 h, the AUC worked out at 3680 ± 875 ng·h/mL and the mean residence time MRT was found to be 9.86 ± 0.75 h. In series [1], the MRT inf came out at 12.5 ± 1.72 h, the Cmax1 amounted to 411.40 ± 110.77 ng/mL, the Tmax1 amounted to 0.18 ± 0.03 h and the Cmax2 is recorded as 275.67 ± 89.36 ng/mL. In series [1], the Tmax2 turned out to be 10.67 ± 1.63 h.

Regarding `O=C(/C=C/c1ccc(O)c(O)c1)O[C@@H]1C[C@@](O)(C(=O)O)C[C@@H](O)[C@@H]1O` [neochlorogenic acid], in series [1], the area under the curve AUC(0-inf) turned out to be 269 ± 70.9 ng·h/mL, the half-life was 0.64 ± 0.27 h, the area under the curve (AUC) was 264 ± 68.2 ng·h/mL and the MRT came out at 3.18 ± 1.57 h. Also, in series [1], the MRT inf amounted to 3.25 ± 1.97 h, the Cmax1 is on record as 205.96 ± 75.12 ng/mL and the Tmax1 was determined as 0.19 ± 0.05 h.

On to `COc1ccc(-c2oc3c(CC=C(C)C)c(O)cc(O)c3c(=O)c2O[C@@H]2O[C@@H](C)[C@H](O)[C@@H](O)[C@H]2O[C@@H]2O[C@H](CO)[C@@H](O)[C@H](O)[C@H]2O)cc1` [sagittatoside A], for which, in series [1], the total exposure AUC(0-inf) was 1780 ± 352 ng·h/mL, the half-life was 13.8 ± 7.09 h, the AUC was 1610 ± 349 ng·h/mL and the MRT came out at 12 ± 0.71 h. For the same compound, in series [1], the MRT inf worked out at 14.3 ± 2 h, the Cmax1 came to 20.35 ± 10.26 ng/mL, the Tmax1 is 0.18 ± 0.03 h and the Cmax2 was found to be 203.50 ± 97.03 ng/mL. Further, in series [1], the Tmax2 is recorded as 11.67 ± 0.82 h.

For `COc1ccc(-c2oc3c(CC=C(C)C)c(O)cc(O)c3c(=O)c2OC2OC(C)C(O)C(O)C2OC2OCC(O)C(O)C2O)cc1` (stereo not shown) [sagittatoside B], in series [1], the AUC(0-inf) stood at 1040 ± 202 ng·h/mL, the half-life is 9.38 ± 2.11 h, the AUC came out at 854 ± 171 ng·h/mL and the mean residence time (MRT) came to 11.7 ± 1.17 h. Further, in series [1], the MRT inf turned out to be 14.9 ± 2.09 h, the Cmax1 was determined as 19.38 ± 9.79 ng/mL, the Tmax1 amounted to 0.20 ± 0.04 h and the Cmax2 turned out to be 112.97 ± 44.50 ng/mL. For the same compound, the Tmax2 in series [1] was 11.00 ± 1.67 h.

Source of the values: publication PMC6100475, “Development and Validation of a HPLC-MS/MS Method for Simultaneous Determination of Twelve Bioactive Compounds in Epimedium: Application to a Pharmacokinetic Study in Rats” (Molecules : A Journal of Synthetic Chemistry and Natural …, 2018).
